Measurements from ChEMBL document CHEMBL1148542, “Synthesis of a novel biotin-tagged photoaffinity probe for VEGF receptor tyrosine kinases” (Bioorg Med Chem Lett, 2006).

target: Vascular endothelial growth factor receptor 2 (Homo sapiens, UniProt P35968); experiment: Inhibitory activity against VEGFR2 kinase
Sequence (P35968 whole entry): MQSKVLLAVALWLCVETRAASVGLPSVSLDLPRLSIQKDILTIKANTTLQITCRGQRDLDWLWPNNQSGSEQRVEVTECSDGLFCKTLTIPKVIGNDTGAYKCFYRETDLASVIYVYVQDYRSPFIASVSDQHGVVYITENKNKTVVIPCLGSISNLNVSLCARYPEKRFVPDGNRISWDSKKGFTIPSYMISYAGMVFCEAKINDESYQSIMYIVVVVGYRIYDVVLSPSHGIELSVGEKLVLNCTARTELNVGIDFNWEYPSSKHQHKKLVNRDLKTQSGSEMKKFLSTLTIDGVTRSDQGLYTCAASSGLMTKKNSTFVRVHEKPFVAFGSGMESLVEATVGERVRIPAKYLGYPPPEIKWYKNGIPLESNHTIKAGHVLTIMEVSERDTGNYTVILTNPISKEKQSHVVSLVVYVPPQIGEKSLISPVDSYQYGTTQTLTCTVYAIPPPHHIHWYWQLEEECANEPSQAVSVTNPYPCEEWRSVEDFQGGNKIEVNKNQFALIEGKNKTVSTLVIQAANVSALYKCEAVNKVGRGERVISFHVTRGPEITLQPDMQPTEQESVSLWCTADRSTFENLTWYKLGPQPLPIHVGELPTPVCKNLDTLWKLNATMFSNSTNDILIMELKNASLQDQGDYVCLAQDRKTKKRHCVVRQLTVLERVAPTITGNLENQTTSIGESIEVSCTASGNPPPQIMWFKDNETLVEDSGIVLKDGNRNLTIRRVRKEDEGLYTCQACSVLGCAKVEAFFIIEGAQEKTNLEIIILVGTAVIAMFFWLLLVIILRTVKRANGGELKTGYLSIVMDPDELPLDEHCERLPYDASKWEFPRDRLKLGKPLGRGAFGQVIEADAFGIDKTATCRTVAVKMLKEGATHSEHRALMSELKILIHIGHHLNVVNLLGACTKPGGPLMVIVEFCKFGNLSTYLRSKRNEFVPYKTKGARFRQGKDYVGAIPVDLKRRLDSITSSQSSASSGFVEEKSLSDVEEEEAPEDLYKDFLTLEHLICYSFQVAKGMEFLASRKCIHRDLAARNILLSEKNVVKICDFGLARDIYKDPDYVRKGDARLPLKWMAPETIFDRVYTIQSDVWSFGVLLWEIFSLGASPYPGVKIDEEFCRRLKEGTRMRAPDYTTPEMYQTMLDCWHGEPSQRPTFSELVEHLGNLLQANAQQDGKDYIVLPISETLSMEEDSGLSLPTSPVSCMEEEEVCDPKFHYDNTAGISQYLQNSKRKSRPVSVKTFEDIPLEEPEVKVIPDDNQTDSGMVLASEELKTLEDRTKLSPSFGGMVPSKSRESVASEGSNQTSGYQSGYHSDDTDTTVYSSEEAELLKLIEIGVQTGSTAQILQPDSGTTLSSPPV

Structure (SMILES)	IC50 [µM]
COc1cc2c(Nc3ccc(Cl)cc3F)ncnc2cc1OCCOCCNC(=O)CCCCC1SCC2NC(=O)NC21 (stereo unspecified)	1.5
COc1cc2c(Nc3ccc(Cl)cc3F)ncnc2cc1OCCOCCNC(=O)c1c(F)c(F)c(N=[N+]=[N-])c(F)c1F	< 1
COc1cc2c(Nc3ccc(Cl)cc3F)ncnc2cc1OCCOCCNC(=O)C(CCCCNC(=O)CCCCC1SCC2NC(=O)NC21)NC(=O)c1c(F)c(F)c(N=[N+]=[N-])c(F)c1F (stereo unspecified)	7.1

More lines, now with the values ahead:

IC50 [µM]	Structure (SMILES)
< 1	COc1cc2c(Nc3ccc(Cl)cc3F)ncnc2cc1OCCNC(=O)c1c(F)c(F)c(N=[N+]=[N-])c(F)c1F
1.5	COc1cc2ncnc(Nc3ccc(Cl)cc3F)c2cc1OC
4.8	COc1cc2c(Nc3ccc(Cl)cc3F)ncnc2cc1OCCNC(=O)CCCCC1SCC2NC(=O)NC21 (stereo unspecified)

target: Vascular endothelial growth factor receptor (Homo sapiens, UniProt P17948+P35916+P35968); experiment: Inhibitory activity against VEGF-stimulated proliferation in HUVEC; format: functional

Structure (SMILES)	IC50 [µM]
COc1cc2c(Nc3ccc(Cl)cc3F)ncnc2cc1OCCOCCNC(=O)CCCCC1SCC2NC(=O)NC21 (stereo unspecified)	1.9
COc1cc2c(Nc3ccc(Cl)cc3F)ncnc2cc1OCCOCCNC(=O)c1c(F)c(F)c(N=[N+]=[N-])c(F)c1F	3.2
COc1cc2c(Nc3ccc(Cl)cc3F)ncnc2cc1OCCOCCNC(=O)C(CCCCNC(=O)CCCCC1SCC2NC(=O)NC21)NC(=O)c1c(F)c(F)c(N=[N+]=[N-])c(F)c1F (stereo unspecified)	40.3

Next, values leading:

IC50 [µM]	Structure (SMILES)
4.1	COc1cc2c(Nc3ccc(Cl)cc3F)ncnc2cc1OCCNC(=O)c1c(F)c(F)c(N=[N+]=[N-])c(F)c1F
14.7	COc1cc2c(Nc3ccc(Cl)cc3F)ncnc2cc1OCCNC(=O)CCCCC1SCC2NC(=O)NC21 (stereo unspecified)
